Data: PMC10216478, “Development of a Non-Peptide Angiotensin II Type 1 Receptor Ligand by Structural Modification of Olmesartan as a Biased Agonist” (Biomedicines, 2023)

Molecular target: T1, AT1 wild-type receptor (Rattus norvegicus, UniProt P25095)
T1 construct: expressed in transfected cells; host or cells: COS7
T1 sequence (P25095 1-359): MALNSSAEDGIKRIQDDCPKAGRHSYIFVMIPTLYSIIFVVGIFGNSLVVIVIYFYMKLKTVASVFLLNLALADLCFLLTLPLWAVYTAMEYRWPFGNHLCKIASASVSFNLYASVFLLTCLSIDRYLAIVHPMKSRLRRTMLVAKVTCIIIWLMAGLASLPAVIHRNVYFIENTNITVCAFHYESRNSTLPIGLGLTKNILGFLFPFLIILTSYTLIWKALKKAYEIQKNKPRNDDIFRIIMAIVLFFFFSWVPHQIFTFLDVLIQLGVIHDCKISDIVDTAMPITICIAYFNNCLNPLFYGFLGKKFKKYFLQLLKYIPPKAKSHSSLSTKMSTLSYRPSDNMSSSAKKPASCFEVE
Test: IP production assay in COS7 cells expressing AT1 wild-type receptor
Assay type: cell-based
Details: for Effect on IP production: AT1 wild-type receptor, COS7 cells, 1 µM ligands or 0.1 µM Ang II, 30 min, n = 5, vs. (-); for Mode of action with regard to IP production: authors' classification from IP production at AT1 wild-type receptor
Method: The synthetic rat AT1 receptor gene, which was cloned in the shuttle expression vector pMT-2, was used for expression and mutagenesis, as described previously. […] In the experiments, cells were grown without a cell-growth supplement. To express the AT1 receptor protein, 10 µg of purified plasmid DNA per 10^7 cells was used in the transfection. Wild-type and mutated AT1 receptors were transiently transfected into cells using Lipofectamine 2000 liposomal reagent (Roche Applied Science, Penzberg, Germany). Cells were plated and grown and were 70–90% confluent at the time of transfection. We incubated plasmid DNA (10 µg)–lipid (10 µL) complexes for 5 min at room temperature and added and incubated the complexes with cells for 24 h. We then analyzed the parameters in transfected cells. […] Transfected cells that had been cultured for 48–72 h were harvested. Cell membranes were prepared using the nitrogen Parr bomb disruption or freeze–thaw methods.
Ligand (such as agonist or antagonist)-induced IP production through the AT1 receptor in transfected COS7 cells transiently expressing the AT1 receptor was measured to evaluate cell signaling as a second messenger for controlling blood pressure, since the increases in the intracellular Ca^2+ concentration were the result of IP accumulation, which indicated vasoconstriction. As a surrogate model with higher levels of AT1 receptor expression, COS7 cells are suitable for IP measurement because it is easy to detect differences in IP production. Cells were labeled for 24 h with [^3H]-myoinositol at 37 °C in DMEM containing 10% FBS. Next, the cells were washed with buffer 3 times and incubated with a medium containing 10 mM LiCl for 20 min; 0.1 µM Ang II or 1 µM ligands were added and incubation was continued for another 30 min at 37 °C. After incubation, the medium was removed, and total soluble IP was extracted from the cells using the perchloric acid extraction method, as described previously. Cells were plated at a field density of 5 × 10^3 cells/cm^2 in 60 mm dishes and cultured in a fresh growth medium at 37 °C in a DMEM 5% CO2 incubator. […] The culture medium was changed 48 h after transfection and 1.5 mL of 1 μCi/mL of [^3H]-myoinositol was added to each 60-mm dish at 37 °C in DMEM containing 10% FBS. After labeling, the cells were washed with buffer 3 times and incubated with a medium containing 10 mM LiCl for 20 min. The indicated concentration of ligands was added and incubation was continued for an additional 30 min at 37 °C. After incubation, the medium was removed, and total soluble IP was extracted from the cells using the perchloric acid extraction method. Total IP production was expressed as the sum of radioactivity, as described previously.

Row | Structure (SMILES) | Effect on IP production | Mode of action with regard to IP production
1 | CCCc1nc(C(C)(C)O)c(C(=O)O)n1Cc1ccc(-c2cc(Cc3ccc(O)cc3)ccc2-c2nnn[nH]2)cc1 [R781253] | significantly decreased | inverse agonist
2 | CCCc1nc(C(C)(C)O)c(C(N)=O)n1Cc1ccc(-c2cc(Cc3ccc(O)cc3)ccc2-c2nnn[nH]2)cc1 [R794847] | increased IP production | agonist
3 | CCCc1nc(C(C)(C)O)c(C(=O)O)n1Cc1ccc(-c2ccccc2-c2nnn[nH]2)cc1 [Olmesartan, olmesartan] | significant reduction in basal IP production levels | inverse agonism
4 | CCCc1nc(C(C)(C)O)c(C(N)=O)n1Cc1ccc(-c2ccccc2-c2nnn[nH]2)cc1 [R239470] | did not change IP production | neutral antagonist
